Type in all cases: in vivo
Assay [1] relates to Phaedon cochleariae. As to the kind of experiment: Phaedon cochleariae spray test. Particulars: 500 g/ha, after 7 days, larvae on Chinese cabbage leaf discs. The method, then:
Phaedon cochleariae—Spray Test
(§1) Solvent: 78.0 parts by weight of acetone • • 1.5 parts by weight of dimethylformamide
(§2) Emulsifier: alkylaryl polyglycol ether
(§3) To produce a suitable preparation of active compound, 1 part by weight of active compound is dissolved using the stated parts by weight of solvent and made up with water containing an emulsifier concentration of 1000 ppm until the desired concentration is attained. To produce further test concentrations, the preparation is diluted with emulsifier-containing water.
After 7 days, the efficacy in % is determined. 100% means that all the beetle larvae have been killed; 0% means that no beetle larvae have been killed.

For assay [2], the system named is Myzus persicae. Briefly: Myzus persicae spray test (Chinese cabbage leaf discs). Particulars: 500 g/ha, after 6 days. The procedure: Myzus persicae—Spray Test Solvent: 78 parts by weight of acetone • • 1.5 parts by weight of dimethylformamide Emulsifier: alkylaryl polyglycol ether […] To produce further test concentrations, the preparation is diluted with emulsifier-containing water. Discs of Chinese cabbage leaves (Brassica pekinensis) infested by all stages of the green peach aphid (Myzus persicae) are sprayed with an active compound preparation of the desired concentration.

Assay [3] concerns Spodoptera frugiperda. Briefly: Spodoptera frugiperda spray test (cotton leaves). Particulars: 100 ppm, after 7 days. The method, then: Spodoptera frugiperda—Spray Test
Solvent: 7 parts by weight of dimethylformamide
as §2
To produce a suitable preparation of active compound, 1 part by weight of active compound is dissolved using the stated parts by weight of solvent and made up with water containing an emulsifier concentration of 1000 ppm until the desired concentration is attained. To produce further test concentrations, the preparation is diluted with emulsifier-containing water. If the addition of ammonium salts or/and penetrants is required, these are each added in a concentration of 1000 ppm to the formulation solution.
Cotton leaves (Gossypium hirsutum) are sprayed with an active compound formulation of the desired concentration and populated with caterpillars of the armyworm (Spodoptera frugiperda).
After 7 days, the kill in % is determined. 100% means that all the caterpillars have been killed; 0% means that none of the caterpillars have been killed.

The test system of assay [4] is Spodoptera frugiperda. As to the kind of experiment: Spodoptera frugiperda spray test (maize leaf discs). As to conditions: 500 g/ha, after 7 days, caterpillars on maize leaf discs. The method, then:
Spodoptera frugiperda—Spray Test Solvent: 78.0 parts by weight of acetone • • 1.5 parts by weight of dimethylformamide Emulsifier: alkylaryl polyglycol ether […] To produce further test concentrations, the preparation is diluted with emulsifier-containing water. Leaf discs of maize (Zea mays) are sprayed with an active compound preparation of the desired concentration and, after drying, populated with caterpillars of the armyworm (Spodoptera frugiperda).

In assay [5] the test system is Boophilus microplus. Briefly: Boophilus microplus injection test. Particulars: 20 μg/animal, assessed after 7 days. The method, then: Boophilus microplus—Injection Test
(§4) Solvent: dimethyl sulphoxide
To produce a suitable preparation of active compound, 10 mg of active compound are mixed with 0.5 ml of solvent and the concentrate is diluted with solvent to the desired concentration.
1 μl of the active compound solution is injected into the abdomen of 5 engorged adult female cattle ticks (Boophilus microplus). The animals are transferred into dishes and kept in a climate-controlled room.
Efficacy is assessed after 7 days by laying of fertile eggs. Eggs which are not visibly fertile are stored in a climate-controlled cabinet until the larvae hatch after about 42 days. An efficacy of 100% means that none of the ticks has laid any fertile eggs; 0% means that all the eggs are fertile.

In assay [6] the test system is Lucilia cuprina. Briefly: Lucilia cuprina test. Particulars: 100 ppm, after 2 days, L1 larvae. The procedure:
as §4
(§5) To produce a suitable preparation of active compound, 10 mg of active compound are mixed with 0.5 ml of dimethyl sulphoxide, and the concentrate is diluted with water to the desired concentration.
About 20 L1 larvae of the Australian sheep blowfly (Lucilia cuprina) are transferred into a test vessel containing minced horsemeat and the active compound preparation of the desired concentration.
After 2 days, the kill in % is determined. 100% means that all the larvae have been killed; 0% means that no larvae have been killed.

Assay [7] relates to Ctenocephalides felis. Briefly: Ctenocephalides felis oral test. Particulars: 100 ppm in citrated cattle blood, after 2 days. The text has this: Ctenocephalides felis—Oral Test Solvent: dimethyl sulphoxide […] Dilution with citrated cattle blood gives the desired concentration. About 20 unfed adult cat fleas (Ctenocephalides felis) are placed into a chamber which is closed at the top and bottom with gauze. A metal cylinder whose bottom end is closed with parafilm is placed onto the chamber. The cylinder contains the blood/active compound preparation, which can be imbibed by the fleas through the parafilm membrane.

In assay [8] the test system is Musca domestica. Briefly: Musca domestica test. Particulars: after 2 days, adult houseflies. The procedure:
as §4, §5
Vessels containing a sponge treated with sugar solution and the active compound preparation of the desired concentration are populated with 10 adult houseflies (Musca domestica).
After 2 days, the kill in % is determined. 100% means that all of the flies have been killed; 0% means that none of the flies have been killed.

The test system of assay [9] is Ctenocephalides felis. Briefly: Ctenocephalides felis in vitro contact test with adult cat fleas. As to conditions: 5 μg/cm^2 (500 g/ha), after 48 h. The procedure: Ctenocephalides felis—In Vitro Contact Tests with Adult Cat Fleas
(§6) For the coating of the test tubes, 9 mg of active compound are first dissolved in 1 ml of acetone p.a. and then diluted to the desired concentration with acetone p.a. 250 μl of the solution are distributed homogeneously on the inner walls and the base of a 25 ml test tube by turning and rocking on an orbital shaker (rocking rotation at 30 rpm for 2 h). With 900 ppm active compound solution and internal surface 44.7 cm^2, given homogeneous distribution, an area-based dose of 5 μg/cm^2 is achieved.
After the solvent has evaporated off, the tubes are populated with 5-10 adult cat fleas (Ctenocephalides felis), sealed with a perforated plastic lid and incubated in a horizontal position at room temperature and ambient humidity. After 48 h, efficacy is determined. To this end, the test tubes are stood upright and the fleas are knocked to the base of the tube. Fleas which remain motionless at the base or move in an uncoordinated manner are considered to be dead or moribund.
100% efficacy means that all the fleas were dead or moribund. 0% efficacy means that no fleas were harmed.

Assay [10] has as its system Rhipicephalus sanguineus. Briefly: Rhipicephalus sanguineus in vitro contact test with adult brown dog ticks. As to conditions: 5 μg/cm^2 (500 g/ha), after 48 h. The procedure: Rhipicephalus sanguineus—In Vitro Contact Tests with Adult Brown Dog Ticks
as §6
After the solvent has evaporated off, the tubes are populated with 5-10 adult dog ticks (Rhipicephalus sanguineus), sealed with a perforated plastic lid and incubated in a horizontal position in the dark at room temperature and ambient humidity. After 48 h, efficacy is determined. To this end, the ticks are knocked to the floor of the tube and incubated on a hotplate at 45-50° C. for not more than 5 min. Ticks which remain motionless on the floor or move in such an uncoordinated manner that they are unable to deliberately avoid the heat by climbing upwards are considered to be dead or moribund.
An efficacy of 100% means that all the ticks were dead or moribund. 0% efficacy means that none of the ticks had been harmed.

For assay [11], the system named is Myzus persicae. As to the kind of experiment: Myzus persicae spray test (bell pepper plants). As to conditions: 100 ppm, after 6 days. The procedure:
Myzus persicae Spray Test Solvent: 7 parts by weight of dimethylformamide Emulsifier: alkylaryl polyglycol ether […] To produce further test concentrations, the preparation is diluted with emulsifier-containing water. If the addition of ammonium salts or/and penetrants is required, these are each added in a concentration of 1000 ppm to the formulation solution. Bell pepper plants (Capsicum annuum) severely infested with the green peach aphid (Myzus persicae) are treated by spraying with the active compound preparation in the desired concentration.

In assay [12] the test system is Meloidogyne incognita. As to the kind of experiment: Meloidogyne incognita test. As to conditions: 20 ppm, after 14 days, lettuce. The procedure:
Meloidogyne incognita Test
Solvent: 125.0 parts by weight of acetone
To produce a suitable preparation of active compound, 1 part by weight of active compound is mixed with the stated amount of solvent and the concentrate is diluted with water to the desired concentration.
Vessels are filled with sand, active compound solution, an egg/larvae suspension of the southern root-knot nematode (Meloidogyne incognita) and lettuce seeds. The lettuce seeds germinate and the plants develop. The galls develop on the roots.
After 14 days, the nematicidal efficacy in % is determined by the formation of galls. 100% means that no galls were found; 0% means that the number of galls on the treated plants corresponds to the untreated control.

In assay [13] the test system is Tetranychus urticae. As to the kind of experiment: Tetranychus urticae spray test, OP-resistant. As to conditions: 500 g/ha, after 6 days, bean leaf discs. The procedure: Tetranychus urticae—Spray Test, OP-Resistant
as §1, §2, §3
Discs of bean leaves (Phaseolus vulgaris) infested with all stages of the greenhouse red spider mite (Tetranychus urticae) are sprayed with an active compound preparation of the desired concentration.
After 6 days, the efficacy in % is determined. 100% means that all the spider mites have been killed; 0% means that no spider mites have been killed.

As for `CCS(=O)(=O)c1ccc(-n2cncn2)nc1-c1nc2cc(C(F)(F)F)ncc2n1C` [Example 32], the efficacy in assay [1] and in assay [2] was 100% each time. Moreover, the “efficacy (kill)” value in assay [3] is reported as 100%.
On to `CCS(=O)(=O)c1ccc(-n2ccc(C(F)F)n2)nc1-c1nc2cc(C(F)(F)F)ncc2n1C` [Example 8], for which the efficacy in assay [1], in assay [4], in assay [2] and in [9] was 100% throughout. In addition, in [5], the “efficacy (laying of fertile eggs)” value is 95%. For the same compound, the “efficacy (kill)” value in [6] is reported as 100%; in [7] it was 95%; in assay [8] (100 ppm) it was 100%.
In the case of `CCS(=O)(=O)c1ccc(-n2nccn2)nc1-c1nc2cc(C(F)(F)F)ncc2n1C` [Example 17], the efficacy was found to be 100% in assay [1]; 100% in [4]; 90% in assay [2]; 100% in [9]; 100% in [10]. Besides, the “efficacy (laying of fertile eggs)” value in [5] turned out to be 100%. The entries for the “efficacy (kill)” value in assay [6], in assay [7] and in assay [8] (20 ppm) were 100%, 98% and 85%, respectively.
On to `CCS(=O)(=O)c1ccc(N2CCOCC2)nc1-c1nc2cc(C(F)(F)F)ncc2n1C` [Example 1], for which the “efficacy (kill)” value in [6] came to 90%; in assay [7], 98%; in assay [11] it was 95%.
Take `CCS(=O)(=O)c1ccc(-n2cnc(I)c2)nc1-c1nc2cc(C(F)(F)F)ncc2n1C` [Example 14]: the efficacy in [1], in [2] and in assay [9] was 100% throughout. Moreover, the “efficacy (kill)” value in [6], in [7] and in [3] was 100% throughout. Moreover, the “nematicidal efficacy (formation of galls)” value in assay [12] is on record as 100%.
Consider `CCS(=O)(=O)c1ccc(-c2cnc(Cl)n2C)nc1-c1nc2cc(C(F)(F)F)ncc2n1C` [Example 81], for which the results for the efficacy in assay [1], in assay [4] and in assay [2] were 100%, 83% and 90%, respectively. Moreover, in assay [12], the “nematicidal efficacy (formation of galls)” value turned out to be 100%.
Turning to `CCS(=O)(=O)c1ccc(-n2ccnc2)nc1-c1nc2cc(C(F)(F)F)ncc2n1C` [Example 33], the efficacy turned out to be 100% in [1], 90% in assay [2], 90% in assay [13] and 100% in assay [9]. Besides, the “efficacy (laying of fertile eggs)” value in [5] is listed as 80%. In addition, in [7], the “efficacy (kill)” value turned out to be 100%.
As to `CCS(=O)(=O)c1ccc(-n2cnc(NC(C)=O)n2)nc1-c1nc2cc(C(F)(F)F)ncc2n1C` [Example 11], the efficacy in assay [1] and in assay [9] was 100% throughout. In addition, the “efficacy (kill)” value in assay [6], in [7] and in assay [11] was 100% in each case.
